Reference: patent US20040197333A1, “Use of TGF-beta antagonists to inhibit tumor cell formation or progression” (Cornell Research Foundation, Inc., priority 2000, published 2004)

Test system: A-549 cells
Assay: Scanning electron microscopy of cell morphology (invasive phenotype)
Assay type: cell-based, human
Settings: 2ngm^−1 recombinant TGF-β1 protein
Source text: Scanning electron microscopy. […] Cells were fixed with PBS, pH 7.4, containing 2.0% glutaraldehyde, and processed as previously described (Ref 17). Samples were examined using a JEOL 25SIII electron microscope.
A-549 cells express functional receptors for TGF-β, and their growth and functions are regulated by TGF-β (refs. 7 and 8). The experiments with A-549 cells were established ex vivo to avoid any confounding effects of CsA-associated inhibition of in vivo immune surveillance mechanism(s).

## recombinant TGF-β1 protein: recombinant TGF-β1 protein added to A-549 cells
  morphological alterations in A-549 cells: induced morphological alterations in A-549 cells that were similar to those elicited by CsA
